Patent US20170305861A1, “HETEROARYL COMPOUNDS COMPRISING NITROGEN AND USE THEREOF” (ImmunoMet Therapeutics, Inc, priority 2016, published 2017)
Where two headings read alike, the source gives them in different places.

Assays:
[1] = tested on: A549 cell lines (lung cancer cell lines); assay: Oxygen Consumption Rate (OCR) of cells, corrected for cell viability (Cyquant); format: cell-based; settings: Homo sapiens, read-out: OCR IC50
Method: The compounds synthesized by the methods disclosed in the Examples of the present invention have been measured on oxygen consumption rate and extracellular oxidation by the methods disclosed in the Test Examples below.
3×10^3 cells from A549 cell lines (purchased from ATCC-American Type Culture Collection), which are lung cancer cell lines, were placed on XF96 cell culture plates using RPMI1640 medium, and cultured at 37° C. in a 5% CO2 condition for 16 hours or more for attachment.
After 16 hours, the cells were treated with the drug at six different concentrations between 0 μM and 20 μM. After 24 hours, the existing medium was removed, and XF assay medium (15 mM D-Glucose, 15 mM sodium pyruvate, 4 mM L-Glutamine, pH 7.4) was added. The cells were retreated with the drug, and additionally cultured in Prep station at 37° C. in a non-CO2 condition for 1 hour. During the one-hour culture in the Prep station, a sensor cartridge was placed and calibrated for 20 minutes, and a plate with cells was placed to analyze the OCR. After the analysis was completed, XF96 plate was measured for cell viability using Cyquant assay, which measures the amount of intracellular DNA, in the following method. XF assay medium and the drug were removed, and the cells were placed in a cryogenic refrigerator (−80° C.) for at least 4 hours to be frozen. After the plate was made to be at room temperature, a solution where a lysis buffer and fluorescent GR dye were mixed was placed by 200 μL per well. After 20-minute reaction at room temperature, […] was measured between […] to calculate cell viability. A measured value of a well untreated with the drug was converted to 100% by reflecting cell viability to the OCR value. Concentration of a drug which inhibits the OCR value reflecting cell viability by 50% was calculated.

SK-MEL-28 cells = assay: Inhibitory effect of cancer cell proliferation, MTT; format: cell-based; settings: Homo sapiens
Method: The compounds prepared in the above Examples were evaluated for the inhibitory effect of cancer cell proliferation according to the method described in the following Test Example.
SK-MEL-28 cells derived from human melanoma were used, and the concentration (cell growth inhibitory concentration, IC50) at which cell growth was inhibited to 50% was measured using MTT reagent (3-(4,5-dimethylthiazole-2-yl)-2,5-[…] bromide) to confirm the inhibitory effect of cancer cell proliferation of the drugs synthesized in Examples 1 to 84.
First, SK-MEL-28 cells were cultured in 96-well plates at a cell number of about 1,250 in RPMI-1640 medium containing 11.1 mM glucose and 10% calf blood serum or 0.75 mM glucose and 10% calf blood serum, and were cultured for 16 hours. […] After treatment of the compound, MTT was added to the culture medium to confirm living cells and further cultured for 2 hours. The resulting formazane crystal was dissolved using dimethyl sulfoxide, and the absorbance of the solution was measured at 555 nm. After culturing for 72 hours, the number of viable cells in the well plate treated with the compounds synthesized in the Examples relative to the number of cells cultured in the well plate without treatment of the compounds was expressed as cell viability (%) according to each treatment concentration. By using this, a cell viability curve graph was prepared, and the inhibitory effect of cancer cell proliferation was confirmed by calculating the concentration of the compound whose growth was inhibited to 50% (IC50).

[2] = A549 cells, 24 h drug treatment, OCR value reflecting cell viability
[3] = SK-MEL-28, 72 h, read-out: SK-MEL-28 0.75 mM glucose Cell viability (IC50 μM)
[4] = SK-MEL-28, 72 h, read-out: SK-MEL-28 11.1 mM glucose Cell viability (IC50 μM)
[5] = SK-MEL-28, 0.75 mM glucose, 72 hours, MTT, read-out: SK-MEL-28 0.75 mM glucose Cell viability (IC50 μM)
[6] = SK-MEL-28, 11.1 mM glucose, 72 hours, MTT, read-out: SK-MEL-28 11.1 mM glucose Cell viability (IC50 μM)

| SMILES | IC50 [1, 2] [µM] | IC50 (SK-MEL-28 cells; [5]) [µM] | IC50 (SK-MEL-28 cells; [6]) [µM] | IC50 (SK-MEL-28 cells; [3]) [µM] | IC50 (SK-MEL-28 cells; [4]) [µM] | IC50 ([1]; A549, 24 h) [µM] |
| --- | --- | --- | --- | --- | --- | --- |
| COc1ccc2cc3[n+](cc2c1OC)CCc1cc2c(cc1-3)OCO2 [Berberine, reference compound] | 4.6 | – | – | – | – | – |
| Nc1cc[n+](CCc2ccccc2)cc1 [Example 1, 4-Amino-1-phenethylpyridinium chloride] | – | – | – | 17.9 | 163 | 1.1 |
| Nc1cc[n+](CCc2ccccc2)c(Br)c1 [Example 7, 4-Amino-2-bromo-1-phenethylpyridinium chloride] | 0.4 | 20.7 | 16.8 | – | – | – |
| Nc1cc[n+](CCc2ccccc2Cl)c(N)c1 [Example 12, 2,4-Diamino-1-(2-chlorophenethyl)pyridinium bromide] | 0.8 | 12.8 | 55.5 | – | – | – |
| c1ccc(CC[n+]2ccsc2)cc1 [Example 13, 3-Phenethylthiazol-3-ium iodide] | 16.5 | 129 | 320 | – | – | – |
| Nc1scc[n+]1CCc1ccccc1 [Example 14, 2-Amino-3-phenethylthiazol-3-ium iodide] | – | 154 | 277 | – | – | – |
| Nc1cc[n+](Cc2ccccc2)cc1 [Example 20, 4-Amino-1-benzylpyridinium chloride] | 1.8 | 14.7 | 143 | – | – | – |
| Nc1cc[n+](Cc2ccccc2)c(F)c1 [Example 21, 4-Amino-1-benzyl-2-fluoropyridinium chloride] | 0.9 | 12.5 | 27.4 | – | – | – |
| c1ccc(CC[n+]2cccc3c2CCCC3)cc1 [Example 22, 1-Phenethyl-5,6,7,8-tetrahydroquinolinium chloride] | 7.9 | 18.5 | 193 | – | – | – |
| Nc1cc[n+](CC(=O)c2ccc(OC(F)(F)F)cc2)cc1 [Example 25, 4-Amino-1-(2-oxo-2-(4-(trifluoromethoxy)phenyl)ethyl)pyridinium bromide] | 1.6 | 15.5 | 40.6 | – | – | – |
| Nc1cc[n+](CC(=O)c2ccccc2)cc1 [Example 26, 4-Amino-1-(2-oxo-2-phenylethyl)pyridinium bromide] | 2.4 | 102 | 194 | – | – | – |
| Nc1cc[n+](CCC2CCCCC2)cc1 [Example 27, 4-Amino-1-(2-cyclohexylethyl)pyridinium bromide] | – | – | – | 1.7 | 19.5 | 0.4 |
| Nc1cc[n+](Cc2ccccc2)c(N)c1 [Example 29, 2,4-Diamino-1-benzylpyridinium chloride] | 5.3 | 38.5 | 162 | – | – | – |
| Nc1cc[n+](CC2CC2)cc1 [Example 31, 4-Amino-1-(cyclopropylmethyl)pyridinium chloride] | 4.3 | 56.2 | 418 | – | – | – |
| FC1(F)CCN(c2cc[n+](Cc3ccccc3)cc2)CC1 [Example 65, 1-benzyl-4-(4,4-difluoropiperidin-1-yl)pyridinium chloride] | – | 28.6 | 215 | – | – | – |
| c1ccc(C[n+]2ccc(NC3COC3)cc2)cc1 [Example 67, 1-Benzyl-4-(oxetan-3-ylamino)pyridinium chloride] | – | 131 | 545 | – | – | – |
| CC(C)(C)Nc1cc[n+](Cc2ccccc2)cc1 [Example 69, 1-benzyl-4-(tert-butylamino)pyridinium chloride] | – | 14.6 | 132 | – | – | – |
| Nc1cc[n+](CC2CC2)cn1 [Example 73, 4-Amino-1-(cyclopropylmethyl)pyrimidin-1-ium chloride] | – | 169 | 358 | – | – | – |
| Nc1cc[n+](Cc2ccc[se]2)cn1 [Example 74, 4-Amino-1-(selenophen-2-ylmethyl)pyrimidin-1-ium chloride] | – | – | – | 74.4 | 243 | – |

Continued by falling IC50 (SK-MEL-28 cells; [5]), values first:

| IC50 [1, 2] [µM] | IC50 (SK-MEL-28 cells; [5]) [µM] | IC50 (SK-MEL-28 cells; [6]) [µM] | SMILES | IC50 (SK-MEL-28 cells; [3]) [µM] | IC50 (SK-MEL-28 cells; [4]) [µM] | IC50 ([1]; A549, 24 h) [µM] |
| --- | --- | --- | --- | --- | --- | --- |
| 0.7 | 11.9 | 38.5 | Nc1cc[n+](CCc2ccccc2Cl)cc1 [Example 11, 4-Amino-1-(2-chlorophenethyl)pyridinium chloride] | – | – | – |
| 0.6 | 10.7 | 16.9 | Nc1cc[n+](CCc2ccccc2)c(F)c1 [Example 18, 4-amino-2-fluoro-1-phenethylpyridinium chloride] | – | – | – |
| 0.9 | 8.2 | 23 | Nc1cc[n+](Cc2ccccc2)c(Cl)c1 [Example 30, 4-Amino-1-benzyl-2-chloropyridinium chloride] | – | – | – |
| 0.3 | 8.1 | 38.8 | Nc1cc[n+](CCc2ccccc2)c(Cl)c1 [Example 32, 4-Amino-2-chloro-1-phenethylpyridinium chloride] | – | – | – |
| 1.5 | 8 | 28.2 | Nc1cc[n+](CCc2ccccc2)c2ccccc12 [Example 16, 4-Amino-1-phenethylquinolinium iodide] | – | – | – |
| 1.1 | 7.9 | 101 | CNc1cc[n+](Cc2ccccc2)cc1 [Example 34, 1-Benzyl-4-(methylamino)pyridinium chloride] | – | – | – |
| 1.5 | 7.7 | 102 | CNc1cc[n+](CCc2ccccc2)cc1 [Example 33, 4-(Methylamino)-1-phenethylpyridinium chloride] | – | – | – |
| 4.2 | 6.9 | 75.4 | CN(C)c1cc[n+](CCc2ccccc2)cc1 [Example 17, 4-(Dimethylamino)-1-phenethylpyridinium chloride] | – | – | – |
| 2.3 | 6.8 | 47 | Nc1cc[n+](CCc2ccccc2)c(C2CC2)c1 [Example 15, 4-amino-2-cyclopropyl-1-phenethylpyridinium iodide] | – | – | – |
| 0.5 | 5.9 | 8.8 | Nc1cc[n+](CCc2ccc(Cl)c(Cl)c2)cc1 [Example 19, 4-Amino-1-(3,4-dichlorophenethyl)pyridinium chloride] | – | – | – |
| 0.9 | 5.4 | 51.1 | Nc1cc[n+](CCCc2ccccc2)cc1 [Example 23, 4-Amino-1-(3-phenylpropyl)pyridinium chloride] | – | – | – |
| 0.5 | 5 | 7.5 | Nc1cc[n+](Cc2ccc(Cl)c(Cl)c2)c(F)c1 [Example 35, 4-Amino-1-(3,4-dichlorobenzyl)-2-fluoropyridinium chloride] | – | – | – |
| 1.2 | 4.7 | 75.1 | Nc1cc[n+](CCc2ccccc2)c(N)c1 [Example 8, 2,4-Diamino-1-phenethylpyridinium bromide] | – | – | – |
| 0.8 | 4.4 | 16.8 | Nc1cc[n+](CCCc2ccccc2)c(F)c1 [Example 24, 4-Amino-2-fluoro-1-(3-phenylpropyl)pyridinium chloride] | – | – | – |
| 0.7 | 2.8 | 13.1 | Nc1cc[n+](Cc2ccc(Cl)c(Cl)c2)cc1 [Example 36, 4-Amino-1-(3,4-dichlorobenzyl)pyridinium chloride] | – | – | – |
| 1.1 | 1.5 | 10.8 | CNc1cc[n+](Cc2ccc(Cl)c(Cl)c2)cc1 [Example 37, 1-(3,4-Dichlorobenzyl)-4-(methylamino)pyridinium chloride] | – | – | – |
| 1.1 | 1.5 | 11.7 | CN(C)c1cc[n+](Cc2ccc(Cl)c(Cl)c2)cc1 [Example 38, 1-(3,4-Dichlorobenzyl)-4-(dimethylamino)pyridinium chloride] | – | – | – |
| 0.4 | 0.7 | 3.8 | Nc1cc[n+](CCC2CCCCC2)c(F)c1 [Example 28, 4-Amino-1-(2-cyclohexylethyl)-2-fluoropyridinium bromide] | – | – | – |
